According to article PMC10891214, “Effects of food and ethnicity on the pharmacokinetics of venadaparib, a next-generation PARP inhibitor, in healthy Korean, Caucasian, and Chinese male subjects” (Investigational New Drugs, 2023):

What was measured:
cytochrome P450 3A4 = system: cytochrome P450 3A4; design: method as in data on file; conditions: in vitro phenotyping study; ref data on file; cited from earlier work
[1] = Safety assessment (adverse events, vital signs, 12-lead ECGs) after a single administration of venadaparib 80 mg; conditions: for TEAEs: number of events / TEAEs: number of subjects: Koreans and Caucasians
Description: Safety was assessed in all subjects who received the study drug at least once throughout the study based on adverse event (AE) monitoring, physical examinations, vital signs, 12-lead electrocardiograms (ECGs), and clinical laboratory tests.
To support the evaluation of the relationship between concentration and QT/corrected QT (QTc) interval effects in the early stage of the clinical development of venadaparib, triplicate ECG tests were conducted in the middle of the study [22]. A triplicate ECG test was conducted in three Caucasian and five Chinese subjects after the protocol amendment. […] Fridericia’s corrected QT interval (QTcF) was collected, along with the existing ventricular rate, PR interval, QRS duration, QT interval, and QTcB. Triplicate ECGs were measured three times at intervals of 30 s to 2 min at each time point after at least 5 min of resting, and the median value of the three measurements was considered a representative value. QTcF and QTcB were calculated using the following population-derived correction equations: QTcF = QT/RR^0.33 and QTcB = QT/RR^0.5 [22].

[2] = Caucasian, fasted state (N = 12)

O=C(c1cc(Cc2n[nH]c(=O)c3ccccc23)ccc1F)N1CC(CNC2CC2)C1 [venadaparib]
5: Nausea: number of events ([1]; Korean, fed state (N = 13))
seven: TEAEs: number of subjects ([1]; fasted state, 80 mg)
1: Blood bilirubin increased: number of events [1, 2] | Chalazion: number of events [1, 2] | Eye disorders: number of events [1, 2] | Gastrointestinal disorders: number of events [1, 2] | Hyperuricaemia: number of events [1, 2] | Investigations: number of events [1, 2] | Metabolism and nutrition disorders: number of events [1, 2] | Nausea: number of events [1, 2] | Blood and lymphatic system disorders: number of events ([1]; Caucasian, fed state (N = 12)) | Blood bilirubin increased: number of events ([1]; Caucasian, fed state (N = 12)) | Decreased appetite: number of events ([1]; Caucasian, fed state (N = 12)) | Dermatitis contact: number of events ([1]; Caucasian, fed state (N = 12)) | Eosinophilia: number of events ([1]; Caucasian, fed state (N = 12)) | Epigastric discomfort: number of events ([1]; Caucasian, fed state (N = 12)) | Gastrointestinal disorders: number of events ([1]; Caucasian, fed state (N = 12)) | General disorders and administration site conditions: number of events ([1]; Caucasian, fed state (N = 12)) | Headache: number of events ([1]; Caucasian, fed state (N = 12)) | Hyperuricaemia: number of events ([1]; Caucasian, fed state (N = 12)) | Investigations: number of events ([1]; Caucasian, fed state (N = 12)) | Lethargy: number of events ([1]; Caucasian, fed state (N = 12)) | Skin and subcutaneous tissue disorders: number of events ([1]; Caucasian, fed state (N = 12)) | Thirst: number of events ([1]; Caucasian, fed state (N = 12)) | Decreased appetite: number of events ([1]; Chinese, fasted state (N = 12)) | Dyspepsia: number of events ([1]; Chinese, fasted state (N = 12)) | Gastrointestinal disorders: number of events ([1]; Chinese, fasted state (N = 12)) | Hypertriglyceridaemia: number of events ([1]; Chinese, fasted state (N = 12)) | Abdominal pain: number of events ([1]; Korean, fasted state (N = 12)) | Dyspepsia: number of events ([1]; Korean, fasted state (N = 12)) | Gingival pain: number of events ([1]; Korean, fasted state (N = 12)) | Nausea: number of events ([1]; Korean, fasted state (N = 12)) | Eye pain: number of events ([1]; Korean, fed state (N = 13)) | Hyperaemia: number of events ([1]; Korean, fed state (N = 13)) | Lacrimation increased: number of events ([1]; Korean, fed state (N = 13)) | Musculoskeletal and connective tissue disorders: number of events ([1]; Korean, fed state (N = 13)) | Respiratory, thoracic, and mediastinal disorders: number of events ([1]; Korean, fed state (N = 13)) | Rhabdomyolysis: number of events ([1]; Korean, fed state (N = 13)) | Rhinorrhoea: number of events ([1]; Korean, fed state (N = 13)) | Vascular disorders: number of events ([1]; Korean, fed state (N = 13)) | Vision blurred: number of events ([1]; Korean, fed state (N = 13))
13: TEAEs: number of subjects ([1]; fed state, 80 mg)
safe and well-tolerated: Safety and tolerability of a single dose ([1]; 80 mg, fasted and fed states, healthy subjects)
1 (8.3): Chalazion: number of subjects (percentage of subjects) [1, 2] | Eye disorders: number of subjects (percentage of subjects) [1, 2] | Gastrointestinal disorders: number of subjects (percentage of subjects) [1, 2] | Metabolism and nutrition disorders: number of subjects (percentage of subjects) [1, 2] | Nausea: number of subjects (percentage of subjects) [1, 2] | Blood and lymphatic system disorders: number of subjects (percentage of subjects) ([1]; Caucasian, fed state (N = 12)) | Blood bilirubin increased: number of subjects (percentage of subjects) ([1]; Caucasian, fed state (N = 12)) | Decreased appetite: number of subjects (percentage of subjects) ([1]; Caucasian, fed state (N = 12)) | Dermatitis contact: number of subjects (percentage of subjects) ([1]; Caucasian, fed state (N = 12)) | Eosinophilia: number of subjects (percentage of subjects) ([1]; Caucasian, fed state (N = 12)) | Epigastric discomfort: number of subjects (percentage of subjects) ([1]; Caucasian, fed state (N = 12)) | General disorders and administration site conditions: number of subjects (percentage of subjects) ([1]; Caucasian, fed state (N = 12)) | Headache: number of subjects (percentage of subjects) ([1]; Caucasian, fed state (N = 12)) | Hyperuricaemia: number of subjects (percentage of subjects) ([1]; Caucasian, fed state (N = 12)) | Investigations: number of subjects (percentage of subjects) ([1]; Caucasian, fed state (N = 12)) | Lethargy: number of subjects (percentage of subjects) ([1]; Caucasian, fed state (N = 12)) | Skin and subcutaneous tissue disorders: number of subjects (percentage of subjects) ([1]; Caucasian, fed state (N = 12)) | Thirst: number of subjects (percentage of subjects) ([1]; Caucasian, fed state (N = 12)) | Decreased appetite: number of subjects (percentage of subjects) ([1]; Chinese, fasted state (N = 12)) | Dyspepsia: number of subjects (percentage of subjects) ([1]; Chinese, fasted state (N = 12)) | Gastrointestinal disorders: number of subjects (percentage of subjects) ([1]; Chinese, fasted state (N = 12)) | Hypertriglyceridaemia: number of subjects (percentage of subjects) ([1]; Chinese, fasted state (N = 12)) | Abdominal pain: number of subjects (percentage of subjects) ([1]; Korean, fasted state (N = 12)) | Dyspepsia: number of subjects (percentage of subjects) ([1]; Korean, fasted state (N = 12)) | Gingival pain: number of subjects (percentage of subjects) ([1]; Korean, fasted state (N = 12)) | Nausea: number of subjects (percentage of subjects) ([1]; Korean, fasted state (N = 12))
3 (23.1): Decreased appetite: number of subjects (percentage of subjects) ([1]; Korean, fed state (N = 13)) | Metabolism and nutrition disorders: number of subjects (percentage of subjects) ([1]; Korean, fed state (N = 13))
9: Total TEAEs: number of events ([1]; Caucasian, fed state (N = 12))
1 (7.7): Dyspepsia: number of subjects (percentage of subjects) ([1]; Korean, fed state (N = 13)) | Eye disorders: number of subjects (percentage of subjects) ([1]; Korean, fed state (N = 13)) | Eye pain: number of subjects (percentage of subjects) ([1]; Korean, fed state (N = 13)) | Hyperaemia: number of subjects (percentage of subjects) ([1]; Korean, fed state (N = 13)) | Lacrimation increased: number of subjects (percentage of subjects) ([1]; Korean, fed state (N = 13)) | Musculoskeletal and connective tissue disorders: number of subjects (percentage of subjects) ([1]; Korean, fed state (N = 13)) | Respiratory, thoracic, and mediastinal disorders: number of subjects (percentage of subjects) ([1]; Korean, fed state (N = 13)) | Rhabdomyolysis: number of subjects (percentage of subjects) ([1]; Korean, fed state (N = 13)) | Rhinorrhoea: number of subjects (percentage of subjects) ([1]; Korean, fed state (N = 13)) | Vascular disorders: number of subjects (percentage of subjects) ([1]; Korean, fed state (N = 13)) | Vision blurred: number of subjects (percentage of subjects) ([1]; Korean, fed state (N = 13))
No serious AEs were observed: Serious AEs ([1]; 80 mg single dose, all groups)
2 (16.7): Metabolism and nutrition disorders: number of subjects (percentage of subjects) ([1]; Caucasian, fed state (N = 12)) | Nervous system disorders: number of subjects (percentage of subjects) ([1]; Caucasian, fed state (N = 12)) | Metabolism and nutrition disorders: number of subjects (percentage of subjects) ([1]; Chinese, fasted state (N = 12))
4: Gastrointestinal disorders: number of events ([1]; Korean, fasted state (N = 12))
nine: TEAEs: number of events ([1]; fasted state, 80 mg)
cytochrome P450 3A4: Enzyme primarily metabolizing the drug (cytochrome P450 3A4)
16: Total TEAEs: number of events ([1]; Korean, fed state (N = 13))
3 (25.0): Gastrointestinal disorders: number of subjects (percentage of subjects) ([1]; Korean, fasted state (N = 12))
7 (58.3): Total TEAEs: number of subjects (percentage of subjects) ([1]; Caucasian, fed state (N = 12))
25: TEAEs: number of events ([1]; fed state, 80 mg)
5 (38.5): Gastrointestinal disorders: number of subjects (percentage of subjects) ([1]; Korean, fed state (N = 13)) | Nausea: number of subjects (percentage of subjects) ([1]; Korean, fed state (N = 13))
No clinically significant changes: Changes in vital signs or 12-lead ECGs ([1]; 80 mg single dose)
did not prolong: Effect of plasma concentrations on QTcF and QTcB values, including changes from the baseline ([1]; 80 mg single dose, triplicate ECG subset)
2: Metabolism and nutrition disorders: number of events ([1]; Caucasian, fed state (N = 12)) | Nervous system disorders: number of events ([1]; Caucasian, fed state (N = 12)) | Metabolism and nutrition disorders: number of events ([1]; Chinese, fasted state (N = 12)) | Dyspepsia: number of events ([1]; Korean, fed state (N = 13))
7: Gastrointestinal disorders: number of events ([1]; Korean, fed state (N = 13))
3: Decreased appetite: number of events ([1]; Korean, fed state (N = 13)) | Eye disorders: number of events ([1]; Korean, fed state (N = 13)) | Metabolism and nutrition disorders: number of events ([1]; Korean, fed state (N = 13))
6 (46.2): Total TEAEs: number of subjects (percentage of subjects) ([1]; Korean, fed state (N = 13))
mild: Severity of TEAEs ([1]; 80 mg single dose, except contact dermatitis (moderate) in one subject, fed state)
